Data published in the Kinase Knowledgebase extract (Sharma et al. 2016).

Experiments:
[1] = tested on: EGFR (Human), P00533 [T790M/L858R]; details: nci-h1975
[2] = tested on: EGFR (Human), P00533 [Assessment of Proliferation in EGFR DelE746_A750 Mutant Expressing HCC827 Cells]
Chain of EGFR (Human), P00533 [Assessment of Proliferation in EGFR DelE746_A750 Mutant Expressing HCC827 Cells] (P00533 whole entry, looked up, stated change not applied): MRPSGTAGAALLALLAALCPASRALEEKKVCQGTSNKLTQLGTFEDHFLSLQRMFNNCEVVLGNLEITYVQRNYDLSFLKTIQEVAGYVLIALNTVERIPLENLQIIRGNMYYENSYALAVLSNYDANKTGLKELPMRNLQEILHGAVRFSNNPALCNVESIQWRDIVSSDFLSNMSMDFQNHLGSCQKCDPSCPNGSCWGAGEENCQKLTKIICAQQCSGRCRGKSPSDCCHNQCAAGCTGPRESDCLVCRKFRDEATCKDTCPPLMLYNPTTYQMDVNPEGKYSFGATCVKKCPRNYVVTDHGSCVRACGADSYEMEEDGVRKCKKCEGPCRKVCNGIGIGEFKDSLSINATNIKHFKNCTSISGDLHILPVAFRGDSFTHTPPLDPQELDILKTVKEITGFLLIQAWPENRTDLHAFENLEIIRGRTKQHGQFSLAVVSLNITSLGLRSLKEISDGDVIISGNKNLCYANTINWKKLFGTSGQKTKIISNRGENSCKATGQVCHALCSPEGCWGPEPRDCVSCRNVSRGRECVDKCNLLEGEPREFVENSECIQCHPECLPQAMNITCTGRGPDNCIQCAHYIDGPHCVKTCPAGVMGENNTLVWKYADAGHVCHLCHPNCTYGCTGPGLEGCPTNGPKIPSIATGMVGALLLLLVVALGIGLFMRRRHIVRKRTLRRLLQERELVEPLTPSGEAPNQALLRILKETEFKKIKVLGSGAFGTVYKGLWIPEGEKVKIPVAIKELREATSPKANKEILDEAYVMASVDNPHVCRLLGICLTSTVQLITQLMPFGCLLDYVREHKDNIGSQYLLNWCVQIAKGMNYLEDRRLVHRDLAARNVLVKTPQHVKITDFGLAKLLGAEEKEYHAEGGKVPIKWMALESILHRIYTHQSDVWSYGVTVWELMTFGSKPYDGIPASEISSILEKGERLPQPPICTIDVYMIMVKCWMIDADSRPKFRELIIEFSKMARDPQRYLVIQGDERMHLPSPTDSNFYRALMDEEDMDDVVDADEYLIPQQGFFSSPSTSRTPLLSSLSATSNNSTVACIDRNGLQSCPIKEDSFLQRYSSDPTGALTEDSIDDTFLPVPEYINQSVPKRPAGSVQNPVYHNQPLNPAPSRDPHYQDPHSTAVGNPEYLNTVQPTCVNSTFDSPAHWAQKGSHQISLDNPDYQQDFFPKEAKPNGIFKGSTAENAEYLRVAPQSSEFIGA

Chain of EGFR (Human), P00533 [T790M/L858R] (P00533 whole entry T790M/L858R, looked up): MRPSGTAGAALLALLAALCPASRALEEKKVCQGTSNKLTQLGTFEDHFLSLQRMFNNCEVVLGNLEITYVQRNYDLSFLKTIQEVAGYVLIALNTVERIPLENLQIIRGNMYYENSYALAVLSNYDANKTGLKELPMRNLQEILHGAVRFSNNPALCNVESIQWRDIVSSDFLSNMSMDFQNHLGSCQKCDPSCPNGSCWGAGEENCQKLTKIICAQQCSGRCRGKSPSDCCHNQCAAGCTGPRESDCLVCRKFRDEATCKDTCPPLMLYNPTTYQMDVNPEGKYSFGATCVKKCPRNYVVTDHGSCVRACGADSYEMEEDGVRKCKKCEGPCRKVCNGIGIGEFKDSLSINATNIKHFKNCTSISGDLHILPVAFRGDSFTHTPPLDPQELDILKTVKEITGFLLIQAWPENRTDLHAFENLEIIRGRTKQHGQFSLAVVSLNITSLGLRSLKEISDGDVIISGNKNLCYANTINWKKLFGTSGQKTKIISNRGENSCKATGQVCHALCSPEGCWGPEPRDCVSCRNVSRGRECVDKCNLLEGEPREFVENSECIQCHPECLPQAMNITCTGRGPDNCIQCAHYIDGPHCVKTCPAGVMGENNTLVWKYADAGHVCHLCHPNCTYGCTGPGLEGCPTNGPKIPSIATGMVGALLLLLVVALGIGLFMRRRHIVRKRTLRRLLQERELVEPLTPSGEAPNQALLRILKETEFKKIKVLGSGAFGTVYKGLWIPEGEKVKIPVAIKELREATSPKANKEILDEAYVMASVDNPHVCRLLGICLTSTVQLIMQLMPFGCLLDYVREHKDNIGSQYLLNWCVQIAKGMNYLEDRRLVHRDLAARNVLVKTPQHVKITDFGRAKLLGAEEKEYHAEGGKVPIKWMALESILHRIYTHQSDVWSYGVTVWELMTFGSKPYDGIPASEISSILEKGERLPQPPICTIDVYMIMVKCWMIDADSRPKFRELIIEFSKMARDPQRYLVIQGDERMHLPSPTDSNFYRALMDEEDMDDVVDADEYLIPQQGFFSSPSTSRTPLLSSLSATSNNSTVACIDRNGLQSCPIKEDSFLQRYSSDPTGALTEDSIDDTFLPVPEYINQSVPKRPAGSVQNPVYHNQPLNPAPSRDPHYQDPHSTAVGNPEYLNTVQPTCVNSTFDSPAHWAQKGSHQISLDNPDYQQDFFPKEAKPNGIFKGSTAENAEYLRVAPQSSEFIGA

Structure (SMILES) | GI50 [2] | GI50 [1]
C=CC(=O)Nc1cccc(Oc2nc(Nc3ccc(C(=O)N(C)C)cc3)nc3ccsc23)c1 | 50 to 100 nM | 50 to 100 nM
C=CC(=O)Nc1cccc(Oc2nc(Nc3ccc(CN4CCN(C5CCN(C)CC5)CC4)c(Cl)c3)nc3ccsc23)c1 | 50 to 100 nM | ≤ 50 nM
C=CC(=O)Nc1cccc(Oc2nc(Nc3ccc(N4CCN(S(=O)(=O)CC)CC4)c(F)c3)nc3ccsc23)c1 | 50 to 100 nM | ≤ 50 nM
C=CC(=O)Nc1cccc(Oc2nc(Nc3ccc(N4CCSCC4)cc3)nc3ccsc23)c1 | 100 to 1000 nM | ≤ 50 nM
C=CC(=O)Nc1cccc(Nc2nc(Nc3ccc(OCCCN(C)C)cc3)nc3ccsc23)c1 | 50 to 100 nM | 50 to 100 nM
C=CC(=O)Nc1cccc(Oc2nc(Nc3ccc(N4CCN(C)CC4)cc3OC)nc3ccsc23)c1 | 50 to 100 nM | 50 to 100 nM
C=CC(=O)Nc1cccc(Oc2nc(Nc3ccc(CCN4CCCCC4)cc3)nc3ccsc23)c1 | ≤ 50 nM | ≤ 50 nM
C=CC(=O)Nc1cccc(Oc2nc(Nc3ccc(CN4CCN(C5CCN(C)CC5)CC4)cc3)nc3ccsc23)c1 | ≤ 50 nM | ≤ 50 nM
C=CC(=O)Nc1cccc(Oc2nc(Nc3ccc(C4CCN(C)CC4)c(F)c3)nc3ccsc23)c1 | ≤ 50 nM | ≤ 50 nM
C=CC(=O)Nc1cccc(Oc2nc(Nc3ccc(C4=CCN(C)CC4)cc3)nc3ccsc23)c1 | ≤ 50 nM | ≤ 50 nM
C=CC(=O)Nc1cccc(Oc2nc(Nc3ccc(N4CCC(CN(C)C)CC4)cc3)nc3ccsc23)c1 | ≤ 50 nM | ≤ 50 nM
C=CC(=O)Nc1cccc(Oc2nc(Nc3ccc(N4CCN(C(=O)CN(C)C)CC4)c(F)c3)nc3ccsc23)c1 | ≤ 50 nM | ≤ 50 nM
C=CC(=O)Nc1cccc(Oc2nc(Nc3ccc(N4CCN(S(=O)(=O)N(C)C)CC4)cc3)nc3ccsc23)c1 | 50 to 100 nM | 50 to 100 nM
C=CC(=O)Nc1cccc(Oc2nc(Nc3ccc(N4CCN(C)CC4)cc3)nc3ccsc23)c1 | ≤ 50 nM | ≤ 50 nM
C=CC(=O)Nc1cccc(Oc2nc(Nc3ccc(CN4CCC4)cc3)nc3ccsc23)c1 | ≤ 50 nM | ≤ 50 nM
C=CC(=O)Nc1cccc(Oc2nc(Nc3ccc(C4CCCN(C)C4)cc3)nc3ccsc23)c1 (centres undefined) | ≤ 50 nM | ≤ 50 nM
C=CC(=O)Nc1cccc(Oc2nc(Nc3ccc(OCCN4CCN(C)CC4)c(F)c3)nc3ccsc23)c1 | ≤ 50 nM | ≤ 50 nM
C=CC(=O)Nc1cccc(Oc2nc(Nc3ccc(N4CC5CC4CN5C)cc3)nc3ccsc23)c1 (centres undefined) | 50 to 100 nM | ≤ 50 nM
C=CC(=O)Nc1cccc(Oc2nc(Nc3ccc(NC(=O)N4CCN(C)CC4)cc3)nc3ccsc23)c1 | 50 to 100 nM | ≤ 50 nM
C=CC(=O)Nc1cccc(Nc2nc(Nc3ccc(CCN(C)C)cc3)nc3ccsc23)c1 | 50 to 100 nM | ≤ 50 nM
C=CC(=O)Nc1cccc(Oc2nc(Nc3ccc(N4CCC(N5CCCC5)CC4)c(F)c3)nc3ccsc23)c1 | ≤ 50 nM | ≤ 50 nM
C=CC(=O)Nc1cccc(Oc2nc(Nc3ccc(NCCN(C)C)c(F)c3)nc3ccsc23)c1 | ≤ 50 nM | ≤ 50 nM
C=CC(=O)Nc1cccc(Oc2nc(Nc3ccc(OCCN4CCOCC4)c(OC)c3)nc3ccsc23)c1 | ≤ 50 nM | ≤ 50 nM
C=CC(=O)Nc1cccc(Oc2nc(Nc3ccc(N4CCN(CCOC)CC4)cc3)nc3ccsc23)c1 | ≤ 50 nM | ≤ 50 nM
C=CC(=O)Nc1cccc(Oc2nc(Nc3ccc(C(=O)NCCN(C)C)cc3)nc3ccsc23)c1 | ≤ 50 nM | 100 to 1000 nM

Structure (SMILES) | GI50 [2] | GI50 [1]
C=CC(=O)Nc1cccc(Nc2nc(Nc3ccc(NC4CCN(C)CC4)c(F)c3)nc3ccsc23)c1 | ≤ 50 nM | 50 to 100 nM
C=CC(=O)Nc1cccc(Oc2nc(Nc3ccc(OCCN4CCOCC4)cc3)nc3ccsc23)c1 | ≤ 50 nM | ≤ 50 nM
C=CC(=O)Nc1cccc(Nc2nc(Nc3ccc(CN(C)C)cc3)nc3ccsc23)c1 | ≤ 50 nM | ≤ 50 nM
C=CC(=O)Nc1cccc(Oc2nc(Nc3ccc(N4CCN(C)CC4)c(F)c3)nc3ccsc23)c1 | ≤ 50 nM | ≤ 50 nM
C=CC(=O)Nc1cccc(Oc2nc(Nc3ccc(N4CCC(N5CCOCC5)CC4)c(Cl)c3)nc3ccsc23)c1 | ≤ 50 nM | ≤ 50 nM
C=CC(=O)Nc1cccc(Oc2nc(Nc3ccc(N4CCC(N5CCCC5)CC4)cc3)nc3ccsc23)c1 | ≤ 50 nM | ≤ 50 nM
C=CC(=O)Nc1cccc(Oc2nc(Nc3ccc(N4CCN(C5CCN(C)CC5)CC4)cc3)nc3ccsc23)c1 | ≤ 50 nM | ≤ 50 nM
C=CC(=O)Nc1cccc(Oc2nc(Nc3ccc(C(C)=O)cc3)nc3ccsc23)c1 | ≤ 50 nM | ≤ 50 nM
C=CC(=O)Nc1cccc(Oc2nc(Nc3ccc(CC(=O)NC4CCN(C)CC4)cc3)nc3ccsc23)c1 | 100 to 1000 nM | ≤ 50 nM
C=CC(=O)Nc1cccc(Oc2nc(Nc3ccc(CN4CCN(CC5CC5)CC4)cc3)nc3ccsc23)c1 | ≤ 50 nM | ≤ 50 nM
C=CC(=O)Nc1cccc(Oc2nc(Nc3ccc(N4CCOCC4)cc3)nc3ccsc23)c1 | 50 to 100 nM | ≤ 50 nM
C=CC(=O)Nc1cccc(Oc2nc(Nc3ccc4c(c3)OCCO4)nc3ccsc23)c1 | 50 to 100 nM | ≤ 50 nM
C=CC(=O)Nc1cccc(Nc2nc(Nc3ccc(N4CCN(CC)CC4)cc3)nc3ccsc23)c1 | ≤ 50 nM | ≤ 50 nM
C=CC(=O)Nc1cccc(Sc2nc(Nc3ccc(N4CCN(C)CC4)cc3)nc3ccsc23)c1 | ≤ 50 nM | ≤ 50 nM
C=CC(=O)Nc1cccc(Nc2nc(Nc3ccc(CN4CCCCC4)cc3)nc3ccsc23)c1 | ≤ 50 nM | ≤ 50 nM
C=CC(=O)Nc1cccc(Oc2nc(Nc3ccc(N4CCN(C)CC4)c(F)c3OC)nc3ccsc23)c1 | 50 to 100 nM | ≤ 50 nM
C=CC(=O)Nc1cccc(Oc2nc(Nc3ccc(CCO)cc3)nc3ccsc23)c1 | ≤ 50 nM | ≤ 50 nM
C=CC(=O)Nc1cccc(Oc2nc(Nc3ccc(N4CCN(CC)CC4)cc3OC)nc3ccsc23)c1 | ≤ 50 nM | ≤ 50 nM
C=CC(=O)Nc1cccc(Oc2nc(Nc3ccc(N4CCN(CC)CC4)cn3)nc3ccsc23)c1 | ≤ 50 nM | ≤ 50 nM
C=CC(=O)Nc1cccc(Oc2nc(Nc3ccc(N4CCC(N(C)C)CC4)cc3)nc3ccsc23)c1 | ≤ 50 nM | ≤ 50 nM
C=CC(=O)Nc1cccc(Oc2nc(Nc3ccc(N4CCNCC4)cc3)nc3ccsc23)c1 | ≤ 50 nM | 100 to 1000 nM
C=CC(=O)Nc1cccc(Oc2nc(Nc3ccc(N4CC[C@@H](n5ccnc5)C4)cc3)nc3ccsc23)c1 | 50 to 100 nM | ≤ 50 nM
C=CC(=O)Nc1cccc(Oc2nc(Nc3ccc(C(C)N4CCN(CC)CC4)cc3)nc3ccsc23)c1 (centres undefined) | ≤ 50 nM | ≤ 50 nM
C=CC(=O)Nc1cccc(Oc2nc(Nc3ccc(N4CCN(C)CC4)nc3)nc3ccsc23)c1 | ≤ 50 nM | ≤ 50 nM

Now from value to compound, other results behind:

GI50 [2] | Structure (SMILES) | GI50 [1]
≤ 50 nM | C=CC(=O)Nc1cccc(Oc2nc(Nc3ccc(N4CCC(CO)CC4)cc3)nc3ccsc23)c1 | 50 to 100 nM
≤ 50 nM | C=CC(=O)Nc1cccc(Oc2nc(Nc3ccc(C(=O)NCCN4CCCC4)cc3OC)nc3ccsc23)c1 | 50 to 100 nM
≤ 50 nM | C=CC(=O)Nc1cccc(Oc2nc(Nc3ccc(C(=O)NC4CCN(C)CC4)c(OC)c3)nc3ccsc23)c1 | 50 to 100 nM
≤ 50 nM | C=CC(=O)Nc1cccc(Oc2nc(Nc3ccc(N4CCN(C(=O)N5CCOCC5)CC4)cc3)nc3ccsc23)c1 | 50 to 100 nM
≤ 50 nM | C=CC(=O)Nc1cccc(Oc2nc(Nc3ccc(OC4CCN(C)CC4)c(F)c3)nc3ccsc23)c1 | ≤ 50 nM
≤ 50 nM | C=CC(=O)Nc1cccc(Nc2nc(Nc3ccc(C4CCN(C)CC4)cc3)nc3ccsc23)c1 | ≤ 50 nM
≤ 50 nM | C=CC(=O)Nc1cccc(Oc2nc(Nc3ccc(CN(C)C)cc3C)nc3ccsc23)c1 | ≤ 50 nM
≤ 50 nM | C=CC(=O)Nc1cccc(Oc2nc(Nc3ccc(C(=O)N4CCN(CC)CC4)c(Cl)c3)nc3ccsc23)c1 | ≤ 50 nM
≤ 50 nM | C=CC(=O)Nc1cccc(Oc2nc(Nc3ccc(OCCN(C)C)c(F)c3)nc3ccsc23)c1 | ≤ 50 nM
≤ 50 nM | C=CC(=O)Nc1cccc(Oc2nc(Nc3ccc(CCN4CCN(S(C)(=O)=O)CC4)cc3)nc3ccsc23)c1 | ≤ 50 nM
≤ 50 nM | C=CC(=O)Nc1cccc(Oc2nc(Nc3ccc(CN4CCN(C)CC4)c(F)c3)nc3ccsc23)c1 | ≤ 50 nM
≤ 50 nM | C=CC(=O)Nc1cccc(Sc2nc(Nc3ccc(N4CCOCC4)c(F)c3)nc3ccsc23)c1 | ≤ 50 nM
≤ 50 nM | C=CC(=O)Nc1cccc(Oc2nc(Nc3ccc(NCCN(C)C)cc3)nc3ccsc23)c1 | 100 to 1000 nM
≤ 50 nM | C=CC(=O)Nc1cccc(Oc2nc(Nc3ccc(C(=O)NC4CCN(C)CC4)c(Cl)c3)nc3ccsc23)c1 | ≤ 50 nM
≤ 50 nM | C=CC(=O)Nc1cccc(Oc2nc(Nc3ccc(N4CCC(C(=O)N(C)C)CC4)cc3)nc3ccsc23)c1 | ≤ 50 nM
≤ 50 nM | C=CC(=O)Nc1cccc(Oc2nc(Nc3ccc(N4CCC(N5CCOCC5)CC4)cc3)nc3ccsc23)c1 | ≤ 50 nM
≤ 50 nM | C=CC(=O)Nc1cccc(Oc2nc(Nc3ccc(CN4CCCC4)cc3)nc3ccsc23)c1 | ≤ 50 nM
≤ 50 nM | C=CC(=O)Nc1cccc(Oc2nc(Nc3ccc(N4CCN(C)CC4)cn3)nc3ccsc23)c1 | ≤ 50 nM
≤ 50 nM | C=CC(=O)Nc1cccc(Oc2nc(Nc3ccc(CN4CCN(C)CC4)nc3)nc3ccsc23)c1 | 50 to 100 nM
≤ 50 nM | C=CC(=O)Nc1cccc(Oc2nc(Nc3ccc(NC4CCN(C)CC4)c(F)c3)nc3ccsc23)c1 | ≤ 50 nM
≤ 50 nM | C=CC(=O)Nc1cccc(Oc2nc(Nc3ccc(N4CCC(CN5CCCCC5)CC4)cc3)nc3ccsc23)c1 | ≤ 50 nM
≤ 50 nM | C=CC(=O)Nc1ccc(F)c(Oc2nc(Nc3ccc(N4CCN(C)CC4)cc3)nc3ccsc23)c1 | ≤ 50 nM
≤ 50 nM | C=CC(=O)Nc1cccc(Oc2nc(Nc3ccc(OCCN(C)C)cc3)nc3ccsc23)c1 | ≤ 50 nM
